From patent US11247947B2, “Method of high-pressure purification of [f-18]FEONM” (Institute of Nuclear Energy Research, Atomic Energy …, priority 2019, dated 2022)

Legend:
[1] = shake-flask lipophilicity (Log P) detection; assay type: physicochemical; settings: for Log P: shake-flask gold standard detection
Text: Besides, the present invention further designs a novel naphthol analogue, [F-18]FEONM, with lipophilicity increased. This is consistent with the concept of the structure design for the present invention. By adding a —C2H4O— functional group to a F-18 end, the lipophilicity of [F-18]FEONM is increased to obtain a potential novel brain imaging agent. The present invention develops the high-pressure isolation and purification to achieve the purpose of purification of [F-18]FEONM without toxic compounds.

[2] = tested on: P301S/PS19 transgenic mice; experiment: brain uptake biodistribution of [F-18]FEONM in P301S/PS19 transgenic mice; assay type: in vivo; settings: 12~13 month-old P301S/PS19 transgenic mice; product purified through an alumina solid-phase extraction column; FIG. 2

Compound | Log P [1] | brain uptake biodistribution ratios (result in words) [2] | lipophilicity compared with [F-18]FDDNP ([1]; same shake-flask gold standard detection)
CC(=C(C#N)C#N)c1ccc2cc(N(C)CC[18F])ccc2c1 [[F-18]FDDNP, reference compound] | 1.93 ± 0.10 | – | –
CC(=C(C#N)C#N)c1ccc2cc(N(C)CCOCCF)ccc2c1 [[F-18]FEONM] | 2.20 ± 0.17 | effective to Alzheimer disease stages | higher than [F-18]FDDNP
